Results: US4745124A, “Orally effective anti-hypertensive agents” (priority 1983, dated 1988)

Tests used:
[1] = tested on: pressor effects of angiotensin I; assay: oral effectiveness: blood pressure response to angiotensin I in anesthetized rats; assay type: in vivo, rat; settings: oral 10 μmol/kg, Ex. 244
Description: Rats (210-290 g body weight) were fasted overnight and then anesthetized with intraperitoneal pentobarbital, 50-60 mg/kg. Tracheostomy was performed and the animals were ventilated mechanically. A cannula was inserted into a femoral vein for injection of angiotensin I or II, and a second cannula was inserted into a common carotid artery for direct measurement of arterial blood pressure. Heparin, 1,000 units, was injected via the femoral vein to prevent coagulation. Blood pressure was measured with a pressure transducer connected to a polygraph. The rats were injected with 80 ng of angiotensin I or angiotensin II in 20 μl of 0.9 g % NaCl; an amount of antiotensin I or II sufficient to raise mean arterial blood pressure by 27-40 mm Hg. After the responsiveness of a given rat to angiotensins I and II was established, compound (I), at 2 or 5 mg/kg (drug dissolved in 0.5 ml of H2 O plus 10 μl of 1N NaHCO3), was given via a stomach tube. At timed intervals, the effects of 80 ng of angiotensin I or angiotensin II on mean arterial blood pressure were tested.
Rats were prepared as described in Example 222. Compound (II) [N-benzoyl-L-phenylalanylthiopropanoyl)-L-proline] was given orally, via a stomach tube, at a dose of 12 mg/kg or 20 mg/kg. Compound (II) was dissolved in 0.5 ml of H2 O plus 10 μl of 1N NaHCO3. In all other respects, the experimental preparations were exactly as described in Example 222.
Rats (210-290 g body weight) were fasted overnight and then anesthetized with intraperitoneal pentobarbital, 50-60 mg/kg. Tracheostomy was performed and the animals were ventilated mechanically. A cannula was inserted into a femoral vein for injection of angiotensin I or II, and a second cannula was inserted into a common carotid artery for direct measurement of arterial blood pressure. Heparin, 1,000 units, was injected via the femoral vein to prevent coagulation. Blood pressure was measured with a pressure transducer connected to a polygraph. The rats were injected with 160 ng of angiotensin I or 80 ng of angiotensin II in 20 μl of 0.9 g % NaCl; an amount of angiotensin I or II sufficient to raise mean arterial blood pressure by 27-40 mm Hg. After the responsiveness of a given rat to angiotensins I and II was established, compound (B) at 10 mg (drug dissolved in 0.5 ml of H2 O plus 10 μl of 1N NaHCO3), was given via a stomach tube. At timed intervals, the effects of 160 ng of angiotensin I or 80 ng of angiotensin II on mean arterial blood pressure were tested. Results are shown below:
Rats (210-290 g body weight) were fasted overnight and then anesthetized with intraperitoneal pentobarbital, 50-60 mg/kg. Tracheostomy was performed and the animals were ventilated mechanically. A cannula was inserted into a femoral vein for injection of angiotensin I, and a second cannula was inserted into a common carotid artery for direct measurement of arterial blood pressure. Heparin, 1,000 units, was injected via the femoral vein to prevent coagulation. Blood pressure was measured with a pressure transducer connected to a polygraph. The rats were injected with 400 ng/kg of angiotensin I in 20 μl of 0.9 g % NaCl; an amount of angiotensin I sufficient to raise mean arterial blood pressure by 39 mm Hg. After the responsiveness of a given rat to angiotensin I was established, the named compound at 17 μmol/kg (drug dissolved in 0.15 ml of H2 O plus 10 μl of 1N NaHCO3), was given via a stomach tube. At timed intervals, the effects of 400 ng/kg of angiotensin I on mean arterial blood pressure were tested. Results are shown below:
Rats (190-290 g body weight) were fasted overnight and then anesthetized with intraperitoneal pentobarbital, 50-60 mg/kg. Tracheostomy was performed and the animals were ventilated mechanically. A cannula was inserted into a femoral vein for injection of angtiotensin I, and a second cannula was inserted into a common carotid artery for direct measurement of arterial blood pressure. […]

[2] = tested on: pressor effects of angiotensin I; assay: intravenous effectiveness: blood pressure response to angiotensin I in anesthetized rats; assay type: in vivo, rat; settings: i.v. 1 μmole/kg, Ex. 245
Description: Anesthetized rats were prepared as described in Example 228. After the responsiveness of a given rat to angiotensin I was established, the named compound at 2 μmol/kg, in a volume of 15 μl of 0.01N sodium bicarbonate, was injected via a femoral vein. At timed intervals, the effects of angiotensin I, 400 ng/kg, on mean arterial blood pressure were tested. Results are shown below:
Anesthetized rats were prepared as described in Example 231. After the responsiveness of a given rat to angiotensin I was established, the named compound, at 2 μmol/kg, in a volume of 15 μl of 0.01N sodium bicarbonate, was injected via a femoral vein. At timed intervals, the effects of angiotensin I, 400 ng/kg, on mean arterial blood pressure were tested. Results are shown below:
Anesthetized rats were prepared as described in Example 239. The animals were administered the named compound via a femoral vein in 15 μl of 0.01N sodium bicarbonate, after the control response to 400 ng/kg of angiotensin I was measured. […] The time required for recovery of one half of the lost responsiveness to angiotensin I, following injection of the named compound, was designated t1/2. […] Results are shown for two dose levels:
Anesthetized rats were prepared as described in Example 242. The named compound was administered intravenously via a femoral vein, at the stated dose, in 15 μl of 0.01N sodium bicarbonate. The response to intravenous administration was a rapid decrease in responsiveness to Angtiotensin I, 400 ng/kg, followed by a gradual recovery to the pretreatment level of responsiveness. The time required for recovery of one half the lost responsiveness to angiotensin I, following injection of the named compound, is designated t1/2. […] Results are shown for the three dose levels:
The intravenous effectiveness of the named compound was examined by following the procedure described in Example 244 except that 1 μmole/kg of the drug was given intravenously. The results are shown below:
The intravenous effectiveness of the named compound was examined by following the procedure described in Example 246 except that 1 μmole/Kg of the drug was given intravenously.

SMILES: C[C@H](CSC(=O)[C@@H](N)CCC(=O)O)C(=O)N1CCC[C@H]1C(=O)O [N-alpha-[3-(L-alpha-glutamylthio)-2-D-methyl-propanoyl]-L-proline]
- Blood Pressure Response to 400 ng/kg of Angiotensin I ([1]; 9 min): 66 % of Control
- Blood Pressure Response to 400 ng/kg of Angiotensin I ([1]; 18 min): 39 % of Control
- Blood Pressure Response to 400 ng/kg of Angiotensin I ([1]; 26 min): 39 % of Control
- Blood Pressure Response to 400 ng/kg of Angiotensin I ([1]; 33 min): 26 % of Control
- Blood Pressure Response to 400 ng/kg of Angiotensin I ([1]; 39 min): 18 % of Control
- Blood Pressure Response to 400 ng/kg of Angiotensin I ([1]; 45 min): 18 % of Control
- Blood Pressure Response to 400 ng/kg of Angiotensin I ([1]; 53 min): 13 % of Control
- Blood Pressure Response to 400 ng/kg of Angiotensin I ([1]; 64 min): 13 % of Control
- Blood Pressure Response to 400 ng/kg of Angiotensin I ([1]; 77 min): 26 % of Control
- Blood Pressure Response to 400 ng/kg of Angiotensin I ([1]; 89 min): 26 % of Control
- Blood Pressure Response to 400 ng/kg of Angiotensin I ([1]; 111 min): 24 % of Control
- Blood Pressure Response to 400 ng/kg of Angiotensin I ([1]; 125 min): 26 % of Control
- Blood Pressure Response to 400 ng/kg of Angiotensin I ([2]; 0.5 min): 13 % of Control
- Blood Pressure Response to 400 ng/kg of Angiotensin I ([2]; 3 min): 13 % of Control
- Blood Pressure Response to 400 ng/kg of Angiotensin I ([2]; 7 min): 13 % of Control
- Blood Pressure Response to 400 ng/kg of Angiotensin I ([2]; 11 min): 21 % of Control
- Blood Pressure Response to 400 ng/kg of Angiotensin I ([2]; 22 min): 21 % of Control
- Blood Pressure Response to 400 ng/kg of Angiotensin I ([2]; 28 min): 18 % of Control
- Blood Pressure Response to 400 ng/kg of Angiotensin I ([2]; 37 min): 29 % of Control
- Blood Pressure Response to 400 ng/kg of Angiotensin I ([2]; 47 min): 37 % of Control
- Blood Pressure Response to 400 ng/kg of Angiotensin I ([2]; 56 min): 39 % of Control
- Blood Pressure Response to 400 ng/kg of Angiotensin I ([2]; 82 min): 53 % of Control
- Blood Pressure Response to 400 ng/kg of Angiotensin I ([2]; 92 min): 71 % of Control
